# According to patent US20160101148A1, “TREATMENT AND PREVENTION OF BACTERIAL SKIN INFECTIONS USING ORITAVANCIN” (priority 2013, published 2016):
# Experiments:
# MRSA isolates = MRSA isolates in a surveillance study (Arhin et al., 2009); cited from earlier work
# [1] = tested on: S. aureus strains (14 mecC MRSA, 2 mecA MRSA, ATCC 29213 MSSA); experiment: In vitro time-kill assays at free peak and free trough concentrations; format: cell-based, Staphylococcus aureus
# Protocol: Viable cell count was determined by serial dilution plating, including the use of 25 g/L charcoal suspension to limit antibiotic carryover. […] Time-kill assays were repeated at least twice independently; results presented are from a representative experiment.
# Doubling dilution concentrations of comparator agents were likewise chosen to approximate their fCmax and fCmin levels in plasma when administered at approved dosages for complicated skin and skin structure infections, using pharmacokinetic data and protein binding values from their respective package inserts (DAP [Cubicin®]; LZD [Zyvox®]; VAN [Vancocin®]; Table 3).
smiles,measurement,setting,value
"CN[C@H](CC(C)C)C(=O)N[C@H]1C(=O)N[C@@H](CC(N)=O)C(=O)N[C@H]2C(=O)N[C@H]3C(=O)N[C@H](C(=O)N[C@H](C(=O)O)c4cc(O)cc(O)c4-c4cc3ccc4O)[C@H](O[C@H]3C[C@](C)(N)[C@@H](O)[C@H](C)O3)c3ccc(c(Cl)c3)Oc3cc2cc(c3O[C@@H]2O[C@H](CO)[C@@H](O)[C@H](O)[C@H]2O[C@H]2C[C@](C)(NCc3ccc(-c4ccc(Cl)cc4)cc3)[C@@H](O)[C@H](C)O2)Oc2ccc(cc2Cl)[C@H]1O [Oritavancin, N^DISACC-(4-(4-chlorophenyl)benzyl)A82846B]",MIC90,MRSA isolates,0.12 µg/mL
same,Time to cidality (≧3 log decrease),"[1]; 57147 (mecC), oritavancin ƒCmax 16 mg/L",5-10 min
same,Time to cidality (≧3 log decrease),"[1]; 57147 (mecC), oritavancin ƒCmin 2 mg/L",5-10 min
same,Time to cidality (≧3 log decrease),"[1]; 70611 (mecC), oritavancin ƒCmax 16 mg/L",≦5 min
same,Time to cidality (≧3 log decrease),"[1]; 70611 (mecC), oritavancin ƒCmin 2 mg/L",5-10 min
same,Time to cidality (≧3 log decrease),"[1]; 73348 (mecC), oritavancin ƒCmax 16 mg/L",5-10 min
same,Time to cidality (≧3 log decrease),"[1]; 73348 (mecC), oritavancin ƒCmin 2 mg/L",5-10 min
same,Time to cidality (≧3 log decrease),"[1]; 73415 (mecC), oritavancin ƒCmax 16 mg/L",5-10 min
same,Time to cidality (≧3 log decrease),"[1]; 73415 (mecC), oritavancin ƒCmin 2 mg/L",5-10 min
same,Time to cidality (≧3 log decrease),"[1]; 73617 (mecC), oritavancin ƒCmax 16 mg/L",5-10 min
same,Time to cidality (≧3 log decrease),"[1]; 73617 (mecC), oritavancin ƒCmin 2 mg/L",10-15 min
same,Time to cidality (≧3 log decrease),"[1]; 73829 (mecC), oritavancin ƒCmax 16 mg/L",≦5 min
same,Time to cidality (≧3 log decrease),"[1]; 73829 (mecC), oritavancin ƒCmin 2 mg/L",5-10 min
same,Time to cidality (≧3 log decrease),"[1]; 75814 (mecC), oritavancin ƒCmax 16 mg/L",≦5 min
same,Time to cidality (≧3 log decrease),"[1]; 75814 (mecC), oritavancin ƒCmin 2 mg/L",5-10 min
same,Time to cidality (≧3 log decrease),"[1]; 76918 (mecC), oritavancin ƒCmax 16 mg/L",5-10 min
same,Time to cidality (≧3 log decrease),"[1]; 76918 (mecC), oritavancin ƒCmin 2 mg/L",5-10 min
same,Time to cidality (≧3 log decrease),"[1]; 77431 (mecC), oritavancin ƒCmax 16 mg/L",≦5 min
same,Time to cidality (≧3 log decrease),"[1]; 77431 (mecC), oritavancin ƒCmin 2 mg/L",5-10 min
same,Time to cidality (≧3 log decrease),"[1]; 77601 (mecC), oritavancin ƒCmax 16 mg/L",≦5 min
same,Time to cidality (≧3 log decrease),"[1]; 77601 (mecC), oritavancin ƒCmin 2 mg/L",5-10 min
same,Time to cidality (≧3 log decrease),"[1]; 77950 (mecC), oritavancin ƒCmax 16 mg/L",≦5 min
same,Time to cidality (≧3 log decrease),"[1]; 77950 (mecC), oritavancin ƒCmin 2 mg/L",5-10 min
same,Time to cidality (≧3 log decrease),"[1]; 77964 (mecC), oritavancin ƒCmax 16 mg/L",≦5 min
same,Time to cidality (≧3 log decrease),"[1]; 77964 (mecC), oritavancin ƒCmin 2 mg/L",5-10 min
same,Time to cidality (≧3 log decrease),"[1]; 78085 (mecC), oritavancin ƒCmax 16 mg/L",5-10 min
same,Time to cidality (≧3 log decrease),"[1]; 78085 (mecC), oritavancin ƒCmin 2 mg/L",10-15 min
same,Time to cidality (≧3 log decrease),"[1]; 78651 (mecC), oritavancin ƒCmax 16 mg/L",5-10 min
same,Time to cidality (≧3 log decrease),"[1]; 78651 (mecC), oritavancin ƒCmin 2 mg/L",10-15 min
same,Time to cidality (≧3 log decrease),"[1]; ATCC 29213 (MSSA), oritavancin ƒCmax 16 mg/L",5-10 min
same,Time to cidality (≧3 log decrease),"[1]; ATCC 29213 (MSSA), oritavancin ƒCmin 2 mg/L",10-15 min
same,Time to cidality (≧3 log decrease),"[1]; ATCC 33591 (mecA), oritavancin ƒCmax 16 mg/L",5-10 min
same,Time to cidality (≧3 log decrease),"[1]; ATCC 33591 (mecA), oritavancin ƒCmin 2 mg/L",10-15 min
same,Time to cidality (≧3 log decrease),"[1]; ATCC 43300 (mecA), oritavancin ƒCmax 16 mg/L",5-10 min
same,Time to cidality (≧3 log decrease),"[1]; ATCC 43300 (mecA), oritavancin ƒCmin 2 mg/L",5-10 min
"CN[C@H](CC(C)C)C(=O)N[C@H]1C(=O)N[C@@H](CC(N)=O)C(=O)N[C@H]2C(=O)N[C@H]3C(=O)N[C@H](C(=O)N[C@H](C(=O)O)c4cc(O)cc(O)c4-c4cc3ccc4O)[C@H](O)c3ccc(c(Cl)c3)Oc3cc2cc(c3O[C@@H]2O[C@H](CO)[C@@H](O)[C@H](O)[C@H]2O[C@H]2C[C@](C)(N)[C@H](O)[C@H](C)O2)Oc2ccc(cc2Cl)[C@H]1O [Vancomycin, vancomycin]",Time to cidality (≧3 log decrease),"[1]; 57147 (mecC), vancomycin ƒCmax 16 mg/L",6-24 h
same,Time to cidality (≧3 log decrease),"[1]; 57147 (mecC), vancomycin ƒCmin 4 mg/L",6-24 h
same,Time to cidality (≧3 log decrease),"[1]; 70611 (mecC), vancomycin ƒCmax 16 mg/L",6-24 h
same,Time to cidality (≧3 log decrease),"[1]; 70611 (mecC), vancomycin ƒCmin 4 mg/L",6-24 h
same,Time to cidality (≧3 log decrease),"[1]; 73348 (mecC), vancomycin ƒCmax 16 mg/L",6-24 h
same,Time to cidality (≧3 log decrease),"[1]; 73348 (mecC), vancomycin ƒCmin 4 mg/L",6-24 h
same,Time to cidality (≧3 log decrease),"[1]; 73415 (mecC), vancomycin ƒCmax 16 mg/L",6-24 h
same,Time to cidality (≧3 log decrease),"[1]; 73415 (mecC), vancomycin ƒCmin 4 mg/L",6-24 h
same,Time to cidality (≧3 log decrease),"[1]; 73617 (mecC), vancomycin ƒCmax 16 mg/L",6-24 h
same,Time to cidality (≧3 log decrease),"[1]; 73617 (mecC), vancomycin ƒCmin 4 mg/L",6-24 h
same,Time to cidality (≧3 log decrease),"[1]; 73829 (mecC), vancomycin ƒCmax 16 mg/L",6-24 h
same,Time to cidality (≧3 log decrease),"[1]; 73829 (mecC), vancomycin ƒCmin 4 mg/L",6-24 h
same,Time to cidality (≧3 log decrease),"[1]; 75814 (mecC), vancomycin ƒCmax 16 mg/L",6-24 h
same,Time to cidality (≧3 log decrease),"[1]; 75814 (mecC), vancomycin ƒCmin 4 mg/L",6-24 h
same,Time to cidality (≧3 log decrease),"[1]; 76918 (mecC), vancomycin ƒCmax 16 mg/L",6-24 h
same,Time to cidality (≧3 log decrease),"[1]; 76918 (mecC), vancomycin ƒCmin 4 mg/L",6-24 h
same,Time to cidality (≧3 log decrease),"[1]; 77431 (mecC), vancomycin ƒCmax 16 mg/L",6-24 h
same,Time to cidality (≧3 log decrease),"[1]; 77431 (mecC), vancomycin ƒCmin 4 mg/L",6-24 h
same,Time to cidality (≧3 log decrease),"[1]; 77601 (mecC), vancomycin ƒCmax 16 mg/L",6-24 h
same,Time to cidality (≧3 log decrease),"[1]; 77601 (mecC), vancomycin ƒCmin 4 mg/L",6-24 h
same,Time to cidality (≧3 log decrease),"[1]; 77950 (mecC), vancomycin ƒCmax 16 mg/L",6-24 h
same,Time to cidality (≧3 log decrease),"[1]; 77950 (mecC), vancomycin ƒCmin 4 mg/L",6-24 h
same,Time to cidality (≧3 log decrease),"[1]; 77964 (mecC), vancomycin ƒCmax 16 mg/L",6-24 h
same,Time to cidality (≧3 log decrease),"[1]; 77964 (mecC), vancomycin ƒCmin 4 mg/L",6-24 h
same,Time to cidality (≧3 log decrease),"[1]; 78085 (mecC), vancomycin ƒCmax 16 mg/L",6-24 h
same,Time to cidality (≧3 log decrease),"[1]; 78085 (mecC), vancomycin ƒCmin 4 mg/L",6-24 h
same,Time to cidality (≧3 log decrease),"[1]; 78651 (mecC), vancomycin ƒCmax 16 mg/L",6-24 h
same,Time to cidality (≧3 log decrease),"[1]; 78651 (mecC), vancomycin ƒCmin 4 mg/L",6-24 h
same,Time to cidality (≧3 log decrease),"[1]; ATCC 29213 (MSSA), vancomycin ƒCmax 16 mg/L",6-24 h
same,Time to cidality (≧3 log decrease),"[1]; ATCC 29213 (MSSA), vancomycin ƒCmin 4 mg/L",6-24 h
same,Time to cidality (≧3 log decrease),"[1]; ATCC 33591 (mecA), vancomycin ƒCmax 16 mg/L",6-24 h
same,Time to cidality (≧3 log decrease),"[1]; ATCC 33591 (mecA), vancomycin ƒCmin 4 mg/L",6-24 h
same,Time to cidality (≧3 log decrease),"[1]; ATCC 43300 (mecA), vancomycin ƒCmax 16 mg/L",6-24 h
same,Time to cidality (≧3 log decrease),"[1]; ATCC 43300 (mecA), vancomycin ƒCmin 4 mg/L",6-24 h
same,Time to achieve 3 log kill,"[1]; all tested strains, both fCmin and fCmax",6 to 24 hours
